Test [1] relates to Mycobacterium tuberculosis. Put plainly: Antitubercular activity against dormant Mycobacterium bovis BCG after at 10 ug 12 days by nitrate reductase assay. It counts as functional, variant bovis BCG.
The test system of test [2] is Mycobacterium tuberculosis. Description: Antitubercular activity against dormant Mycobacterium bovis BCG after at 3 ug 12 days by nitrate reductase assay. It counts as functional, variant bovis BCG.
The test system of test [3] is Mycobacterium tuberculosis. Description: Antitubercular activity against dormant Mycobacterium bovis BCG after at 30 ug 12 days by nitrate reductase assay. In kind it is functional, variant bovis BCG.
Test [4] concerns Mycobacterium tuberculosis. Description: Antitubercular activity against dormant Mycobacterium bovis BCG after 12 days by nitrate reductase assay. It counts as functional, organism-based. The following applies: variant bovis BCG, 288 h.

We go through 26 compounds from ChEMBL document CHEMBL3792312, “Synthesis and docking studies of pyrazine-thiazolidinone hybrid scaffold targeting dormant tuberculosis” (Bioorg Med Chem Lett, 2016).

In brackets after ≈: the same amount, converted by molar mass.

The term IC50 denotes the concentration that gives 50% inhibition. For orientation: MIC means the lowest concentration found to suppress growth. Read a high MIC as weaker potency. For the compound `COc1ccc([C@H]2SCC(=O)N2NC(=O)c2nccnc2N)cc1OC`, the entries for the “inhibition (INH)” value in test [1], in test [2] and in test [3] were 25.35%, 3.112% and 94.4%, respectively. In test [4], this compound yielded an IC50 of 23.4 µg/mL (≈ 62.5 µM). Besides, in test [4], the MIC turned out to be 29.2 µg/mL (≈ 77.9 µM).
With `O=C(NN1C(=O)CSC1c1ccc(O)cc1)c1cnccn1` (stereo not drawn), the “inhibition (INH)” value is 16.47% in test [1], 9.989% in test [2] and 54.42% in test [3].
In the same order, the values of `Nc1nccnc1C(=O)NN1C(=O)CSC1c1ccc(Cl)cc1` (stereo not drawn) are 46.72%, 22.09% and 76.11%.
With `CCOc1cc([C@H]2SCC(=O)N2NC(=O)c2nccnc2N)ccc1O`, the results for the “inhibition (INH)” value in test [1], in test [2] and in test [3] were 23.79%, 30.79% and 97.5903%, respectively. This compound also came in with an IC50 in test [4] of 23.4 µg/mL (≈ 62.4 µM). Further, the MIC in test [4] amounted to 29.4 µg/mL (≈ 78.4 µM).
`Cc1cnc(C(=O)NN2C(=O)CSC2c2ccccc2)cn1` (stereo not drawn): the “inhibition (INH)” value in test [1] is on record as -6.383%; in test [2], 34.12%; in test [3], 96.6%.
On the same counts, the results for `Cc1cnc(C(=O)NN2C(=O)CSC2c2ccc(Cl)cc2)cn1` (stereo not drawn) are 48.01%, 44.18% and 61.87%.
In the same order, the values of `Nc1nccnc1C(=O)NN1C(=O)CSC1c1ccc(O)cc1` (stereo not drawn) are 45.87%, 14.76% and 82.99%.
Take `CCOc1cc([C@@H]2SCC(=O)N2NC(=O)c2cnc(C)cn2)ccc1O`: the “inhibition (INH)” value is on record as 34.91% in test [1], -10.8481% in test [2] and 97.31% in test [3]. The compound also returned an IC50 in test [4] of 9.46 µg/mL (≈ 25.3 µM). Besides, inhibition of growth in test [4] (MIC) required 15.9 µg/mL (≈ 42.5 µM).
Consider `Nc1nccnc1C(=O)NN1C(=O)CS[C@H]1c1ccc([N+](=O)[O-])cc1`, for which the “inhibition (INH)” value in test [1] is listed as 34.04%; in test [2], 45.89%; in test [3], 96.67%.
On the same counts, the results for `Nc1nccnc1C(=O)NN1C(=O)CSC1c1ccc(Cl)cc1Cl` (stereo not drawn) are 27.48%, 22.55% and 56.5348%.
In test [4], `CO[C@H]1/C=C/O[C@@]2(C)Oc3c(C)c(O)c4c(O)c(c(/C=N/N5CCN(C)CC5)c(O)c4c3C2=O)NC(=O)/C(C)=C\C=C\[C@H](C)[C@H](O)[C@@H](C)[C@@H](O)[C@@H](C)[C@H](OC(C)=O)[C@@H]1C` [RIFAMPIN] registered an IC50 of 0.004 µg/mL (≈ 0.00486 µM) and an MIC of 0.04 µg/mL (≈ 0.0486 µM).
Consider `Cc1cnc(C(=O)NN2C(=O)CSC2c2ccc(O)cc2)cn1` (stereo not drawn), for which the “inhibition (INH)” value in test [1] is -17.5884%; in test [2], -7.23%; in test [3], 77.54%.
For the compound `O=C(NN1C(=O)CS[C@@H]1c1ccc(Cl)cc1)c1cnccn1`, the “inhibition (INH)” value stood at 91.85% in test [1], 43.58% in test [2] and 96.24% in test [3]. For the same compound, in test [4], half-maximal inhibition (IC50) required 3.26 µg/mL (≈ 9.74 µM). This compound also gave an MIC in test [4] of 8.48 µg/mL (≈ 25.3 µM).
Turning to `CN(C)c1ccc(C2SCC(=O)N2NC(=O)c2nccnc2N)cc1` (stereo not drawn), the “inhibition (INH)” value was found to be 44.99% in test [1], 26.9022% in test [2] and 32.8615% in test [3].
On the same counts, the results for `COc1ccc(C2SCC(=O)N2NC(=O)c2cnc(C)cn2)cc1` (stereo not drawn) are 66.73%, -16.0935% and 88.13%.
In the case of `COc1cc([C@@H]2SCC(=O)N2NC(=O)c2cnc(C)cn2)ccc1O`, the “inhibition (INH)” value in test [1] is 81.1965%; in test [2] it was 3.203%; in test [3], 98.03%. In test [4], the midpoint of inhibition, the IC50, lay at 5.1 µg/mL (≈ 14.2 µM). Further, the MIC in test [4] turned out to be 12.2 µg/mL (≈ 34 µM).
With `NC(=O)c1cnccn1` [PYRAZINAMIDE], in test [4], the MIC was greater than 100 µg/mL.
For `O=C(NN1C(=O)CS[C@@H]1c1ccc([N+](=O)[O-])cc1)c1cnccn1`, the “inhibition (INH)” value is listed as 92.72% in test [1], 24.09% in test [2] and 98.6% in test [3]. The IC50 in test [4] worked out at 4.93 µg/mL (≈ 14.3 µM). In addition, the MIC in test [4] was 9.38 µg/mL (≈ 27.2 µM).
In the case of `Nc1nccnc1C(=O)NN1C(=O)CSC1c1ccc(F)cc1` (stereo not drawn), the “inhibition (INH)” value in test [1] was 26.63%; in test [2], 12.4938%; in test [3], 63.72%.
On the same counts, the results for `COc1ccc(C2SCC(=O)N2NC(=O)c2cnc(C)cn2)cc1OC` (stereo not drawn) are 14.41%, -15.2185% and 96.436%.
In the case of `Cc1cnc(C(=O)NN2C(=O)CS[C@@H]2c2ccc([N+](=O)[O-])cc2)cn1`, the “inhibition (INH)” value in test [1] is 56.74%; in test [2] it was -13.1407%; in test [3], 97.76%. Besides, the IC50 in test [4] was found to be 23.4 µg/mL (≈ 65.3 µM). For the same compound, 28.8 µg/mL (≈ 80.1 µM) was the least that counted as inhibitory in test [4] (MIC).
Take `Nc1nccnc1C(=O)NN1C(=O)CSC1c1cccc([N+](=O)[O-])c1` (stereo not drawn): the “inhibition (INH)” value was 38.85% in test [1], 47.21% in test [2] and 64.92% in test [3].
Take `Nc1nccnc1C(=O)NN1C(=O)CSC1c1ccccc1` (stereo not drawn): the “inhibition (INH)” value in test [1] came out at 30.74%; in test [2], 11.98%; in test [3] it was 97.97%. In test [4], the IC50 turned out to be 12.9 µg/mL (≈ 40.9 µM). For the same compound, the lowest concentration to inhibit growth in test [4] (MIC) was 24.4 µg/mL (≈ 77.4 µM).
In test [4], `NNC(=O)c1ccncc1` [ISONIAZID] came in with an MIC of 0.045 µg/mL (≈ 0.328 µM).
`Cc1cnc(C(=O)NN2C(=O)CS[C@H]2c2ccc(N(C)C)cc2)cn1`: the “inhibition (INH)” value is reported as 75.69% in test [1], 30.06% in test [2] and 92.16% in test [3]. Besides, the IC50 in test [4] amounted to 21.8 µg/mL (≈ 61 µM). The compound also yielded an MIC in test [4] of 29.4 µg/mL (≈ 82.3 µM).
Turning to `Cc1cnc(C(=O)NN2C(=O)CS[C@@H]2c2cccc([N+](=O)[O-])c2)cn1`, the “inhibition (INH)” value is recorded as 88.47% in test [1], 10.69% in test [2] and 96.43% in test [3]. Further, half-maximal inhibition in test [4] (IC50) was put at 9.89 µg/mL (≈ 27.5 µM). In addition, the MIC in test [4] came out at 18.5 µg/mL (≈ 51.5 µM).
